Measurements taken from patent US20160160268A1, “AMDINOCILLIN FOR RAPID DETERMINATION OF SUSCEPTIBILITY TO BETA-LACTAM ANTIBIOTICS” (THE REGENTS OF THE UNIVERSITY OF CALIFORNIA, priority 2013, published 2016).

How the values were obtained:
Assay type in all cases: cell-based
[1] = tested on: antibiotic susceptible and resistant E. coli strains; assay: Mature rRNA and pre-rRNA response to beta-lactam antibiotics with or without amdinocillin; conditions: for differentiation of antibiotic-susceptible from antibiotic-resistant bacteria on addition of amdinocillin to the assay: with amdinocillin
Procedure: As a result of blocking filamentation, levels of mature rRNA and pre-rRNA decrease within 30-45 min when amdinocillin is combined with beta lactam antibiotics. […] For example, at a concentration of 32 μg/ml, cefazolin causes a drop of pre-rRNA within 30 min whether or not amdinocillin is present.
Ampicillin-susceptible E. coli (strain EC135) was treated with ampicillin (16 μg/ml) alone, amdinocillin (1 μg/ml) alone, ampicillin plus amdinocillin, or neither. […] Effects on pre-rRNA were more pronounced than those on mature rRNA.
Ceftriaxone-susceptible E. coli (strain EC103) was treated with ceftriaxone ([…]) alone, amdinocillin ([…]) alone, ceftriaxone plus amdinocillin, or neither. Ceftriaxone-mediated effects on mature rRNA and pre-rRNA occurred 60 min faster with amdinocillin than without amdinocillin.
Cefazolin-susceptible E. coli (strain EC103) was treated with amdinocillin (1 μg/ml) plus cefazolin at concentrations ranging from 0-32 μg/ml.
Graphs illustrating the effects of beta-lactam antibiotics plus amdinocillin on antibiotic susceptible and resistant bacteria can be found in FIGS. 14A-14D. Antibiotic susceptible and resistant bacteria were treated with amdinocillin (1 μg/ml) plus various beta lactam antibiotics including 16 μg/ml cefazolin, 4 μg/ml ceftriaxone, 32 μg/ml piperacillin plus 4 μg/ml tazobactam, and 2 μg/ml imipenem. Differential effects on pre-rRNA of susceptible from resistant bacteria were evident within 30-90 min.

[2] = tested on: lawn of E. coli (strains EC135, EC96, EC103, NDM-1); assay: Kirby-Bauer disc diffusion antibiotic-susceptibility test
Excerpt: FIGS. 15A-15F present digital photomicrographs showing results of Kirby-Bauer disc diffusion antibiotic-susceptibility tests. 6 mm diameter antibiotic discs were placed on agar plates seeded with a lawn of E. coli that were Ampicillin susceptible (strain EC135), Ampicillin resistant (strain EC96), Cefazolin susceptible (strain EC103), Cefazolin resistant (strain EC96), Imipenem susceptible (strain EC103) or Imipenem resistant (strain NDM-1). In each panel the antibiotic disc is on the left and the amdinocillin disc is on the right. Images were obtained after 20 hours of incubation at 37° C.

[3] = tested on: E. coli (strain EC103) cells; assay: E. coli cell length (filamentation) measurement
Procedure: The lengths of ampicillin-susceptible E. coli (strain EC103) cells were measured after treatment for 30 minutes with no antibiotics, ampicillin, or ampicillin plus amdinocillin. Digital photomicrographs of representative cells treated with no antibiotics (16A), ampicillin (16B), and ampicillin plus amdinocillin (16C) are shown.

[4] = tested on: susceptible strain of E. coli; assay: Response of pre-rRNA to cefazolin in log phase culture; conditions: log phase of growth
[5] = tested on: E. coli clinical urine isolate EC103; assay: Electrochemical sensor assay of mature rRNA and pre-rRNA after adding an antibiotic to a growing culture; conditions: for effect on mature rRNA level: 25 μg/ml Chloramphenicol or 16 μg/ml Gentamicin added at 150 or 210 minutes; for effect on pre-rRNA level: 25 μg/ml Rifampicin, 25 μg/ml Chloramphenicol, 4 μg/ml Ciprofloxacin or 16 μg/ml Gentamicin added at 150 or 210 minutes
Procedure: Overnight cultures of EC103 were prepared by adding 5 μl of EC103 glycerol stock to 5 ml of MH broth with ampicillin and incubated at 37° C. overnight with shaking. […] Every 30 min, including at 0 min and the overnight culture itself, a 1 ml sample was taken for OD600 measurement and 10-fold serial dilutions (100 μl into 900 μl) were performed in room temperature MH broth. Cell density was determined by plating serial dilutions in triplicate. At each time point, culture samples were transferred to an ice water bath or centrifuged immediately at 4° C. for 3 min at 14,000 rpm.
Electrochemical detection.
Each sensor of the array consisted of a 2.5 mm diameter central working electrode, surrounded by an Au counter electrode and an Au pseudo-reference electrode. […] Washing steps were carried out after each application of reagents by applying a stream of deionized H2O to the sensor surface for approximately 2-3 sec followed by 5 sec of drying under a stream of nitrogen. Prior to addition of the first reagent, the bare gold chips were dried as described above. To functionalize the working sensor surface, a fresh mixture of 0.05 μM thiolated capture probe and 300 μM 1,6-hexanedithiol (96%, Sigma, St. Louis, Mo.) was prepared in 10 mM Tris-HCl, 1 mM EDTA and 0.3 M NaCl (pH 8.0) and allowed to stand at room temperature for 10 min. Aliquots of 6 μl of this mixture were cast over each Au working electrode in the 16-sensor array and incubated overnight at 4° C. in a humidified chamber.

Question: What does the source list for `CC1(C)S[C@@H]2[C@H](/N=C/N3CCCCCC3)C(=O)N2[C@H]1C(=O)O` [amdinocillin]?
Answer: effect of amdinocillin alone on rRNA or pre-rRNA levels ([1]; amdinocillin alone): no effect; effect of amdinocillin on recognition of ampicillin susceptibility ([1]; ampicillin 16 μg/ml, amdinocillin 1 μg/ml, strain EC135): enabled early recognition of ampicillin susceptibility; effect of amdinocillin on recognition of cefazolin susceptibility ([1]; cefazolin 4 μg/ml, amdinocillin 1 μg/ml, strain EC103): enabled early recognition of cefazolin-susceptibility; effect of amdinocillin on pre-RNA levels ([1]; cefazolin 32 μg/ml, amdinocillin 1 μg/ml, strain EC103): no effect; synergy between amdinocillin and the antibiotics tested ([2]; ampicillin, cefazolin, imipenem discs, 20 hours at 37° C.): Synergy was not observed; effect of amdinocillin on susceptibility of bacteria to beta-lactam antibiotics ([2]; disc diffusion): did not increase the susceptibility; effect on filamentation caused by beta-lactam antibiotics [3]: prevents filamentation; effect on ampicillin-induced increase in cell length ([3]; ampicillin plus amdinocillin, 30 minutes, strain EC103): partially blocked

Question: `CC1(C)S[C@@H]2[C@H](NC(=O)[C@H](N)c3ccccc3)C(=O)N2[C@H]1C(=O)O` [ampicillin] was tested. Which “dependence of the amdinocillin effect on the antibiotic concentration” value [1] did it give?
Answer: independent of the antibiotic concentration

Question: And the “differentiation of antibiotic-susceptible from antibiotic-resistant bacteria on addition of amdinocillin to the assay” value (“differentiation” below) [1]?
Answer: enables rapid differentiation

Question: What about the “average increase in length of E. coli cells” value ([3]; treatment for 30 minutes, strain EC103) of the same compound?
Answer: 4 fold

Question: For `Cc1nnc(SCC2=C(C(=O)O)N3C(=O)[C@@H](NC(=O)Cn4cnnn4)[C@H]3SC2)s1` [cefazolin], which “dependence of the amdinocillin effect on the antibiotic concentration” value [1] is on record?
Answer: dependent on the antibiotic concentration

Question: And the “concentration dependence of fall in pre-rRNA levels” value ([1]; cefazolin 0-32 μg/ml plus amdinocillin 1 μg/ml, strain EC103)?
Answer: fell more quickly at higher cefazolin concentrations

Question: And the “effect on pre-rRNA” value ([1]; cefazolin 4 μg/ml)?
Answer: does not cause a drop of pre-rRNA unless amdinocillin is present

Question: And the “time within which pre-rRNA drops” value ([1]; cefazolin 32 μg/ml, whether or not amdinocillin is present)?
Answer: ≤ 30 min

Question: And the “differentiation” value [1]?
Answer: enables rapid differentiation

Question: What about the “drop in amount of pre-rRNA compared to culture without antibiotic” value [4] of the same compound?
Answer: one-log drop

Question: What about the “time within which the pre-rRNA drop occurred” value [4] of the same compound?
Answer: ≤ 30 min

Question: `CO/N=C(\C(=O)N[C@@H]1C(=O)N2C(C(=O)O)=C(COC(C)=O)CS[C@H]12)c1csc(N)n1` [cefotaxime] was tested. Which “differentiation” value [1] did it give?
Answer: enables rapid differentiation

Question: For `CO/N=C(\C(=O)N[C@@H]1C(=O)N2C(C(=O)O)=C(CSc3nc(=O)c(=O)[nH]n3C)CS[C@H]12)c1csc(N)n1` [ceftriaxone], which “how much faster effects on mature rRNA and pre-rRNA occurred with amdinocillin than without” value ([1]; ceftriaxone (8 pg/ml), amdinocillin 1 μg/ml, strain EC103) is on record?
Answer: 60 min

Question: `O=C(N[C@H](CO)[C@H](O)c1ccc([N+](=O)[O-])cc1)C(Cl)Cl` [chloramphenicol] was tested. Which “effect on mature rRNA level” value [5] did it give?
Answer: decrease

Question: And the “effect on pre-rRNA level” value [5]?
Answer: selective increase

Question: For `CCN1CCN(C(=O)N[C@@H](C(=O)N[C@@H]2C(=O)N3[C@@H]2SC(C)(C)[C@@H]3C(=O)O)c2ccccc2)C(=O)C1=O` [piperacillin], which “differentiation” value [1] is on record?
Answer: enables rapid differentiation

Question: For gentamicin, which “effect on mature rRNA level” value [5] is on record?
Answer: decrease

Question: And the “effect on pre-rRNA level” value [5]?
Answer: without affecting
